Test results from PMC9315496, “A Comparison of the Photophysical, Electrochemical and Cytotoxic Properties of meso-(2-, 3- and 4-Pyridyl)-BODIPYs and Their Derivatives” (Sensors (Basel, Switzerland), 2022).
Like-named read-outs stand apart in the source and are kept apart here. Marks after values point to notes of the source that are not given here. One block for each compound: values may come before it.

Key:
HEp2 cells [1] = assay: Dark cytotoxicity, Cell Titer Blue; assay type: cell-based; conditions: Homo sapiens, HEp-2, 24 h incubation, read-out: Dark Toxicity (IC50)
Procedure: (§1) Human carcinoma HEp2 cells were obtained from ATCC and maintained in a 75 cm^2 flask (Chemglass) with 1× MEM (Eagle’s minimal essential medium) containing 10% FBS (fetal bovine serum) and 1% antibiotic (penicillin–streptomycin) in a humidified, 5% CO2 incubator at 37 °C. Stock solutions with a concentration of 32 mM in DMSO were prepared for each BODIPY. The stock solution was diluted to the final working concentrations with culture medium. The HEp2 cells were plated at 7500–10,000 cells per well in a Costar 96-well plate and allowed to grow for 24 h. The BODIPY stock solution was diluted to a 200 μM working solution and two-fold serial dilutions were prepared with final concentrations of 200, 100, 50, 25, 12.5, 6.25, and 0 μM. Each BODIPY was incubated for 24 h at 37 °C under 5% CO2. For the dark cytotoxicity experiments, after incubation, excess BODIPY was removed by washing the cells three times with 1× PBS (phosphate-buffered saline) and replacing with media containing 20% Cell Titer Blue (Promega, Madison, WI, USA). The cells were then incubated for additional 24 h at 37 °C under 5% CO2 and the cell toxicity was determined by fluorescence intensity at ex 570/em 615 nm using a FluoStar Optima microplate reader (BMG Labtech, Cary, NC, USA).

[2] = UV-vis absorption and emission spectroscopy, relative fluorescence quantum yields; assay type: physicochemical; conditions: for λabs / λem: room temperature; for Φf (relative fluorescence quantum yield): standard Ru(bpy)Cl2.6H2O (Φf = 0.028) in H2O, λexc = 436 nm
Procedure: UV−vis absorption spectra were collected on a Varian Cary 50 Bio spectrophotometer. Emission spectra were obtained on a PerkinElmer LS55 spectrophotometer, at room temperature. Spectrophotometric grade solvents and quartz cuvettes (1 cm path length) were used. Relative fluorescence quantum yields (Φf) were calculated using rhodamine 6G (Φf = 0.86 in methanol) as reference for the neutral BODIPYs and Ru(bpy)Cl2.6H2O (Φf = 0.028 in water) as the standard for the cationic BODIPYs using the following equation: Φx = Φst × Gradx/Gradst × (ηx/ηst)^2, where the ΦX and ΦST are the quantum yields of the sample and standard, GradX and GradST are the gradients from the plot of integrated fluorescence intensity vs. absorbance, and η represents the refractive index of the solvent (x is for the sample and st for the standard).

HEp2 cells [3] = assay: Phototoxicity (1.5 J/cm^2), Cell Titer Blue; assay type: cell-based; conditions: Homo sapiens, HEp-2, light or radiation study, light dose 1.5 J/cm^2
Procedure: as §1
For the phototoxicity experiments, after incubation the cells were exposed to a light dose of ~1.5 J/cm^2 generated using a 600 W Quartz Tungsten Halogen lamp (Newport Corporation, Irvine, CA, USA). The cells were exposed for 20 min while the 96-well plate rested on an EchoTherm chilling plate (Torrey Pines Scientific, Carlsbad, CA, USA) set to 5 °C. Following light exposure, the loading media was removed and media containing 20% Cell Titer Blue was added. After incubation for 24 h at 37 °C under 5% CO2, the cell viability was determined as described above.

Cyclic voltammetry = assay type: physicochemical
Source text: Cyclic voltammograms were collected on a Biologic SP-300 potentiostat using a three-electrode setup with a platinum working electrode (2 mm diameter, CH Instruments), platinum counter electrode (2 mm diameter, CH Instruments), and a silver wire pseudo reference-electrode stored in 0.25 M NBu4PF6 in anhydrous acetonitrile and separated from the electrochemical cell by a glass frit. The electrochemical cell was composed of a borosilicate glass scintillation vial with a custom-machined cap. Working electrodes were polished and then pre-treated by cycling between upper and lower boundaries of the electrochemical window for the experiment in a solution containing only the electrolyte. Measurements were taken in a solution of 0.25 M recrystallized NBu4PF6 in dried and degassed anhydrous acetonitrile. BODIPYs were added to 5 mL of electrolyte solution to give a concentration of 1 mM. Each solution also contained 1 mM ferrocene as an internal reference. Solutions were sparged with N2 before each measurement.

[4] = cited from earlier work
[5] = vs. Fc^+/Fc, 100 mV/s, acetonitrile, 0.25 M NBu4PF6

Stokes Shift ([2]; CH3CN): 20 nm
ε (molar extinction coefficient) ([2]; CH3CN): 43,160 M^−1 cm ^−1
λabs ([2]; CH3CN): 540 nm
λem ([2]; CH3CN): 560 nm
Φf (relative fluorescence quantum yield) ([2]; CH3CN): 0.23 ^b
Stokes Shift ([2]; H2O): 24 nm
ε (molar extinction coefficient) ([2]; H2O): 35,180 M^−1 cm ^−1
λabs ([2]; H2O): 540 nm
λem ([2]; H2O): 564 nm
Φf (relative fluorescence quantum yield) ([2]; H2O): 0.47
Φf (relative fluorescence quantum yield) ([2]; H2O, listed as 3catPyCl2 (I^−)): 0.47 ^b
fluorescence enhancement relative to the non-chlorinated pyridinium BODIPY ([2]; acetonitrile): 38 fold
fluorescence enhancement relative to the non-chlorinated pyridinium BODIPY ([2]; water): 100 fold
first reduction wave shift positive compared with the unchlorinated BODIPY (Cyclic voltammetry): 240 mV
second reduction wave shift positive compared with the unchlorinated BODIPY (Cyclic voltammetry): 120 mV
anodic peak shift positive compared with the corresponding unchlorinated BODIPY (Cyclic voltammetry; 100 mV/s): 160 mV
E1/2ox (oxidation peak potential only, irreversible wave) (Cyclic voltammetry; [5]): +1.10 ^c V
E1/2red, first one-electron reduction (Cyclic voltammetry; [5]): −1.02 V
E1/2red, second one-electron reduction (Cyclic voltammetry; [5]): −1.42 V
SMILES: CC1=C(Cl)C(C)=[N+]2C1=C(c1ccc[n+](C)c1)c1c(C)c(Cl)c(C)n1[B-]2(F)F [3catPyCl2, 2,6-Dichlo-8-(N-methyl-3-pyridyl)-1,3,5,7-tetramethyl-BODIPY]
IC50 (HEp2 cells [1]): 120 µM
IC50 (HEp2 cells [3]): > 100 µM

bathochromic shift of maximum absorption wavelength upon methylation ([2]; acetonitrile, experimental): 8 nm
E1/2red, two-electron reduction to doubly reduced state (Cyclic voltammetry; [5]): −1.06 ^e V
E1/2ox (Cyclic voltammetry; vs. Fc^+/Fc, 100 mV/s, acetonitrile, 0.25 M NBu4PF6, PF6^− counterion): +0.89 V
SMILES: CC1=CC(C)=[N+]2C1=C(c1cc[n+](C)cc1)c1c(C)cc(C)n1[B-]2(F)F [4catPy]
IC50 (HEp2 cells [1]): > 200 µM
IC50 (HEp2 cells [3]): > 100 µM
Stokes Shift ([4]; CH3CN): 87 nm
Φf (fluorescence quantum yield) ([4]; CH3CN): 0.019
ε (molar extinction coefficient) ([4]; CH3CN): 26,000 M^−1 cm ^−1
λabs ([4]; CH3CN): 509 nm
λem ([4]; CH3CN): 596 nm
Stokes Shift ([4]; H2O): 91 nm
Φf (fluorescence quantum yield) ([4]; H2O): 0.004
ε (molar extinction coefficient) ([4]; H2O): 31,600 M^−1 cm ^−1
λabs ([4]; H2O): 509 nm
λem ([4]; H2O): 600 nm
